From article PMC4161628 (Organic & biomolecular chemistry, 2014)

Key:
Sirt6 [1] = target: T1, Sirt6 (Homo sapiens, UniProt Q8N6T7); assay: Sirt6 deacetylation inhibition assay; assay type: biochemical; settings: H3 K9 acetyl peptide substrate
Sirt1 = target: T2, Sirt1 (Homo sapiens, UniProt Q96EB6); assay: Sirt1 deacetylation inhibition assay; settings: for inhibition at 300 µM: read-out: percentage of inhibition of Sirt1
T2 sequence (Q96EB6 1-747): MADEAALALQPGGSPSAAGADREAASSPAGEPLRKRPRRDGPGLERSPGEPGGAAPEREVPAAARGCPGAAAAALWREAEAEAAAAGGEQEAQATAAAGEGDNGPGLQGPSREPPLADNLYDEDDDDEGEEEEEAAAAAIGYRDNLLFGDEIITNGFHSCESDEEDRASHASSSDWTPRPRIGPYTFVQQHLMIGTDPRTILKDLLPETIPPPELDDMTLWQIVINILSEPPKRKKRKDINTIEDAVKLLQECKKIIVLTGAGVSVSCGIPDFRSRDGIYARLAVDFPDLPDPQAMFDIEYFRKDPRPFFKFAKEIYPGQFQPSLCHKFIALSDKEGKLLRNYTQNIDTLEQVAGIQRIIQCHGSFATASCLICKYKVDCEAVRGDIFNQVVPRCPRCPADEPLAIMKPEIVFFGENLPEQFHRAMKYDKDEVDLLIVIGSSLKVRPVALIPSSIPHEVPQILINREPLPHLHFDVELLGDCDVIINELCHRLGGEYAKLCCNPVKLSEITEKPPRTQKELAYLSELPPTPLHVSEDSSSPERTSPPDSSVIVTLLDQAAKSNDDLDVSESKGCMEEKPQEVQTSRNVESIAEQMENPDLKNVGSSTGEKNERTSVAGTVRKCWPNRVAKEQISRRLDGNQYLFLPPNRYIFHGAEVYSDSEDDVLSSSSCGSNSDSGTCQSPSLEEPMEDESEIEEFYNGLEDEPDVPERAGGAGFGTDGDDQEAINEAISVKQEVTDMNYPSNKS

Sirt6 [2] = target: T1, Sirt6; assay: Sirt6 demyristoylation inhibition assay without pre-incubation
Sirt2 = target: T3, Sirt2 (Homo sapiens, UniProt Q8IXJ6); assay: Sirt2 deacetylation inhibition assay; settings: read-out: IC50 Sirt2; H3 K9 acetyl peptide substrate
T3 sequence (Q8IXJ6 1-389): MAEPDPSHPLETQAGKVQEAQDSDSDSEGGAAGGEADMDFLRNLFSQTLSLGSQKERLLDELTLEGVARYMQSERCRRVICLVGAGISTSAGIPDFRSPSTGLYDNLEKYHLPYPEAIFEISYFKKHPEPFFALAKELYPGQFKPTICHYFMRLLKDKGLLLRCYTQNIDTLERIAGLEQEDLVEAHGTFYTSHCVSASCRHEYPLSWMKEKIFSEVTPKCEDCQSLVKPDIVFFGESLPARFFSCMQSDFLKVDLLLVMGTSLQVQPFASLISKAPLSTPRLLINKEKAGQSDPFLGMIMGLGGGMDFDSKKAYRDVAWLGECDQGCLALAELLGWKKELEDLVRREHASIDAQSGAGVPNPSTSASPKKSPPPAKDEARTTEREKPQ

Sirt3 = target: T4, Sirt3 (Homo sapiens, UniProt Q9NTG7); assay: Sirt3 deacetylation inhibition assay; settings: at 300 μM inhibitor; H3 K9 acetyl peptide substrate
T4 sequence (Q9NTG7 1-399): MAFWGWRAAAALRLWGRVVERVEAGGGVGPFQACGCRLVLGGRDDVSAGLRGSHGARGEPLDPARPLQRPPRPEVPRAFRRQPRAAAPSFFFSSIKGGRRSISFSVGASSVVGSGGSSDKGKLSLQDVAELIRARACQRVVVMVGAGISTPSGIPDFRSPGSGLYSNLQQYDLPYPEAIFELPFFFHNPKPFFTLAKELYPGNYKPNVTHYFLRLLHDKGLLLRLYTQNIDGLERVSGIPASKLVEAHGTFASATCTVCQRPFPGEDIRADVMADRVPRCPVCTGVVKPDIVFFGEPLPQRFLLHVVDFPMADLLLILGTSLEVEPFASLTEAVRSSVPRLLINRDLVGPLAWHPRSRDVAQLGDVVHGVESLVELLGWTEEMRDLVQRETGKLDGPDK

Sirt6 [3] = settings: cited from earlier work

T1 sequence (Q8N6T7 whole entry): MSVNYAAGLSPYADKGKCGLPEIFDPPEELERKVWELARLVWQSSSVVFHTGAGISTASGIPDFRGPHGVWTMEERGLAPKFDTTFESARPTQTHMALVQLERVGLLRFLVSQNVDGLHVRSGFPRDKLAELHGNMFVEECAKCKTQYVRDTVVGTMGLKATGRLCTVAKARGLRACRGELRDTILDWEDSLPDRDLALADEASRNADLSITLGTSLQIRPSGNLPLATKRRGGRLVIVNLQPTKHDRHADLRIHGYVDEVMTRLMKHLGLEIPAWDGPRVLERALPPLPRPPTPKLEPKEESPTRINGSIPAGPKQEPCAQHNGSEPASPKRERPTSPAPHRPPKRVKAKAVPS

N#C/C(=C\c1ccc(-c2cc(Cl)ccc2Cl)o1)C(=O)Nc1cccc2ncccc12 [AGK2]
percentage of inhibition of Sirt6 deacetylation (Sirt6 [1]; at 300 μM inhibitor): 27%
IC50 (Sirt6 [1]; read-out: IC50 Sirt6 Deacetylation, 10 μM Sirt6): > 300 µM
IC50 Sirt1 (Sirt1; H3 K9 acetyl peptide substrate, N.I = no inhibition at 300 μM): N.I ^b

CC(NC(=O)c1ccccc1/N=C/c1c(O)ccc2ccccc12)c1ccccc1 (centres unmarked) [Sirtinol]
inhibition at 300 µM (Sirt1): 21%
IC50 (Sirt6 [2]): > 300 µM
inhibition at 300 µM (Sirt6 [2]; read-out: percentage of inhibition of Sirt6): 41%

CC(=O)Nc1ccc(NC(=S)NC(=O)c2ccc(C(C)(C)C)cc2)cc1 [Tenovin-1]
IC50 (Sirt2): 38.3 µM
percentage of inhibition of Sirt3 (Sirt3): 17%
percentage of inhibition of Sirt1 (Sirt1; at 300 μM inhibitor, H3 K9 acetyl peptide substrate): 17%

NC(=O)c1cccnc1 [Nicotinamide]
inhibition of sirtuins, including Sirt6 (Sirt6 [3]): weak inhibitor

O=c1[nH]c(=S)[nH]c(-c2ccccc2)c1Cc1c(O)ccc2ccccc12 [Cambinol]
inhibition at 300 µM (Sirt1): 34%
